In paper PMC7413254 (Nature Communications, 2020):

Columns and labels:
non-expressing oocytes [1] = assay type: cell-based, Xenopus laevis; details: non-expressing oocytes; [test solute]i = 45 mM (30 mM for some solutes due to solubility); total [3H]CQ transport, normalised to the oocyte type control
Procedure, shortened: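 Oocytes (ten per treatment, ≥4 independent frogs/days) were preloaded by injecting VF-6 in 25 nL ND96 at pH 5.0, 5.5, 6.0 or 7.0, or Na^+-free choline buffer, then uptake run 1.5 h, 27.5 °C, ND96 pH 5.5 by default. Internal concentrations assumed ~400 nL oocyte volume.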

PfCRT^Dd2 [2] = molecular target: T1, PfCRT^Dd2 (Plasmodium falciparum, UniProt Q9N623, A220S/I356T/K76T/M74I/N326S/N75E/Q271E/R371I); experiment: [3H]CQ uptake into Xenopus oocytes, cis-inhibition by unlabelled solute; assay type: cell-based; details: PfCRTDd2 oocytes, background [3H]CQ accumulation subtracted, normalised to oocyte type control
Procedure, shortened: (§1)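 Radioactivity accumulated per oocyte, read by liquid scintillation after 10% SDS lysis, served as the uptake measure. Incubations ran 1.5 h at 27.5 °C in ND96 at pH 5.5, matching digestive-vacuole acidity.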

PfCRT^Ecu1110 [3] = molecular target: T2, PfCRT^Ecu1110 (Plasmodium falciparum, UniProt Q9N623, A220S/I356L/K76T/N326D); experiment: as above; assay type: cell-based; details: for Uptake of [3H]CQ (% PfCRTEcu1110 control), cis-inhibition / PfCRT-mediated [3H]CQ transport, cis-inhibition (% PfCRTEcu1110 control): PfCRTEcu1110 oocytes; for Uptake of [3H]CQ (% PfCRTEcu1110 control), cis-inhibition: total [3H]CQ transport, normalised to the oocyte type control; for PfCRT-mediated [3H]CQ transport, cis-inhibition (% PfCRTEcu1110 control): background [3H]CQ accumulation subtracted, normalised to oocyte type control; for [3H]CQ transport (% PfCRTEcu1110 control), cis-inhibition, PfCRTEcu1110: PfCRT-mediated component (background subtracted), sheet title says normalised to PfCRTDd2 control, mean ± SEM, SEM
Procedure, shortened: as §1

non-expressing oocytes [4] = experiment: cells; assay type: cell-based, Xenopus laevis; details: non-expressing oocytes, total [3H]CQ transport, normalised to the oocyte type control
Procedure, shortened: as §1

PfCRT^Dd2 [5] = molecular target: T1, PfCRT^Dd2; experiment: cell-based; assay type: cell-based; details: for Uptake of [3H]CQ (% PfCRTDd2 control), trans-stimulation / PfCRT-mediated [3H]CQ transport, trans-stimulation (% PfCRTDd2 control): PfCRTDd2 oocytes; for Uptake of [3H]CQ (% PfCRTDd2 control), trans-stimulation: total [3H]CQ transport, normalised to the oocyte type control; for PfCRT-mediated [3H]CQ transport, trans-stimulation (% PfCRTDd2 control): normalised to oocyte type control; for [3H]CQ transport (% PfCRTDd2 control), trans-stimulation, PfCRTDd2: PfCRT-mediated component (background subtracted), mean ± SEM, SEM
Procedure, shortened: (§2)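 Transport measured in Xenopus oocytes expressing the transporters, 1.5 h at 27.5 °C in ND96 pH 5.5 unless noted. For trans-stimulation, VF-6 injected in 25 nL ND96 at pH 5.0–7.0 or Na^+-free (choline) buffer; intracellular levels based on ~400 nL oocyte volume. Ten oocytes per treatment, ≥4 experiments.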

PfCRT^3D7 [6] = molecular target: T3, PfCRT^3D7 (Plasmodium falciparum, UniProt Q8IBZ9); experiment: cell-based; assay type: cell-based; details: PfCRT3D7 oocytes; for Uptake of [3H]CQ (% PfCRT3D7 control), trans-stimulation: total [3H]CQ transport, normalised to the oocyte type control; for PfCRT-mediated [3H]CQ transport, trans-stimulation (% PfCRT3D7 control): normalised to oocyte type control
Procedure, shortened: as §2

PfCRT^Ecu1110 [7] = molecular target: T2, PfCRT^Ecu1110; experiment: cell-based; assay type: cell-based; details: for Uptake of [3H]CQ (% PfCRTEcu1110 control), trans-stimulation / PfCRT-mediated [3H]CQ transport, trans-stimulation (% PfCRTEcu1110 control): PfCRTEcu1110 oocytes; for Uptake of [3H]CQ (% PfCRTEcu1110 control), trans-stimulation: total [3H]CQ transport, normalised to the oocyte type control; for PfCRT-mediated [3H]CQ transport, trans-stimulation (% PfCRTEcu1110 control): normalised to oocyte type control; for [3H]CQ transport (% PfCRTDd2 control), trans-stimulation, PfCRTEcu1110: PfCRT-mediated component (background subtracted), sheet title says normalised to PfCRTDd2 control, mean ± SEM, SEM
Procedure, shortened: as §2

PfNT1 = molecular target: T4, PfNT1 (Plasmodium falciparum, UniProt Q8IDM6); experiment: cell-based; assay type: cell-based; details: PfNT1 oocytes, total [3H]CQ transport, normalised to the oocyte type control
T4 construct: expressed in transfected cells; host or cells: Xenopus laevis oocytes (stage V-VI), cRNA-injected
Procedure, shortened: as §2

PfCRT^3D7 [8] = molecular target: T3, PfCRT^3D7; experiment: cell-based; assay type: cell-based; details: PfCRT3D7 oocytes, total [3H]CQ transport, normalised to the oocyte type control
Procedure, shortened: as §1

[9] = [test solute]i = 45 mM (30 mM for some solutes due to solubility)
[10] = [test solute]i = 5 mM (intracellular)
[11] = [test solute]i = 45 mM (intracellular; 30 mM for some solutes due to solubility)
[12] = [test solute]i = 5 mM (injected)

T2 sequence (Q9N623 whole entry A220S/I356L/K76T/N326D): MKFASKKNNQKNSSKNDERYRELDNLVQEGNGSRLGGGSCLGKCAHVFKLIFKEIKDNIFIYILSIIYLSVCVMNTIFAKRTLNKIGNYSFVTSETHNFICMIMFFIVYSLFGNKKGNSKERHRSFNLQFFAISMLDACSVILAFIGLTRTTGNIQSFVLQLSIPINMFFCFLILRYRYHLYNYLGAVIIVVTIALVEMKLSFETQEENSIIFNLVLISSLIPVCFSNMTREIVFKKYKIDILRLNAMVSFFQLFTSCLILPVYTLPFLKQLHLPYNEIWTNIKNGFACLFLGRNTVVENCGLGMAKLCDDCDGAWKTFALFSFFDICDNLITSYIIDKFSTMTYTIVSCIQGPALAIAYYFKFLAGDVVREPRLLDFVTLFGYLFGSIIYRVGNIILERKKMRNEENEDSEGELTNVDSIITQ
T1 sequence (Q9N623 whole entry A220S/I356T/K76T/M74I/N326S/N75E/Q271E/R371I): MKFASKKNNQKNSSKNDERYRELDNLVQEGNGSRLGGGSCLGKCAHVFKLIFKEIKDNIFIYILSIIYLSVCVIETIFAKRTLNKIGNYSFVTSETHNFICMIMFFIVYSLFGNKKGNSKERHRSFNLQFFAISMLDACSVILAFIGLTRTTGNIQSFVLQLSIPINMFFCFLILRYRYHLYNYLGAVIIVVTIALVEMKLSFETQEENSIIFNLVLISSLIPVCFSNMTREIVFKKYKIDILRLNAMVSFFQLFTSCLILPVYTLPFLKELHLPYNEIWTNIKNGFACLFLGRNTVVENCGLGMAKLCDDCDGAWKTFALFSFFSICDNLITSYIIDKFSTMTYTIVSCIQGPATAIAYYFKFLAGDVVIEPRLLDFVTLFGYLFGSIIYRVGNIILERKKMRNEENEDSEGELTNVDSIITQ
T3 sequence (Q8IBZ9 59-398): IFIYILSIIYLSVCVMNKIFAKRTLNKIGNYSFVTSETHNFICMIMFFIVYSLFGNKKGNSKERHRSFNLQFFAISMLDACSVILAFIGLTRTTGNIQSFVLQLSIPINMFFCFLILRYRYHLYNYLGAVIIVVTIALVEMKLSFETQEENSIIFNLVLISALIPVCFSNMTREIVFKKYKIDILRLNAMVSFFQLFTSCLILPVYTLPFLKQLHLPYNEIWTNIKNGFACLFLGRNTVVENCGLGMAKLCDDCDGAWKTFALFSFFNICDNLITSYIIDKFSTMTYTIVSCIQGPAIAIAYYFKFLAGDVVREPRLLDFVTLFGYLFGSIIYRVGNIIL
T4 sequence (Q8IDM6 whole entry): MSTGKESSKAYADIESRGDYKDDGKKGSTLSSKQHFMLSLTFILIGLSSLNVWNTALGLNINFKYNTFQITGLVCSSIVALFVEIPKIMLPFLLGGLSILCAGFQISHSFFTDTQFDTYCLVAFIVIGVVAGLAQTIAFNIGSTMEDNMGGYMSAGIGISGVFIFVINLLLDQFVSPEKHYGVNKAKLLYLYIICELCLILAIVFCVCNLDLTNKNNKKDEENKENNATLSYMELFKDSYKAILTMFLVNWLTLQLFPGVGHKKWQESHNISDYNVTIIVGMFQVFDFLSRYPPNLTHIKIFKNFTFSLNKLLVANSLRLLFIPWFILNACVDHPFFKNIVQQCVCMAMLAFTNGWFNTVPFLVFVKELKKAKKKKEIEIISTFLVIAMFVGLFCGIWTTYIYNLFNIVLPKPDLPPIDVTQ

With PVQA [PA-4] the “Uptake of [3H]CQ (% non-expressing oocyte control), trans-stimulation” value (non-expressing oocytes [1]) was 100 ± 2.6 % non-expressing oocyte control, the “PfCRT-mediated [3H]CQ transport, cis-inhibition (% PfCRTDd2 control)” value (PfCRT^Dd2 [2]; [test solute] = 0.5 mM) was 51 ± 3.0 % PfCRTDd2 control and the “PfCRT-mediated [3H]CQ transport, cis-inhibition (% PfCRTDd2 control)” value (PfCRT^Dd2 [2]; [test solute] = 1 mM) was 41 ± 2.9 % PfCRTDd2 control. For the same substance, the “PfCRT-mediated [3H]CQ transport, cis-inhibition (% PfCRTDd2 control)” value (PfCRT^Dd2 [2]; [test solute] = 2 mM) was 31 ± 1.2 % PfCRTDd2 control, the “Uptake of [3H]CQ (% PfCRTEcu1110 control), cis-inhibition” value (PfCRT^Ecu1110 [3]; [test solute] = 0.5 mM) was 65 ± 2.9 % PfCRTEcu1110 control and the “Uptake of [3H]CQ (% PfCRTEcu1110 control), cis-inhibition” value (PfCRT^Ecu1110 [3]; [test solute] = 1 mM) was 59 ± 3.6 % PfCRTEcu1110 control. For the same substance, the “Uptake of [3H]CQ (% PfCRTEcu1110 control), cis-inhibition” value (PfCRT^Ecu1110 [3]; [test solute] = 2 mM) was 43 ± 2.5 % PfCRTEcu1110 control, the “PfCRT-mediated [3H]CQ transport, cis-inhibition (% PfCRTEcu1110 control)” value (PfCRT^Ecu1110 [3]; [test solute] = 0.5 mM) was 61 ± 0.4 % PfCRTEcu1110 control and the “PfCRT-mediated [3H]CQ transport, cis-inhibition (% PfCRTEcu1110 control)” value (PfCRT^Ecu1110 [3]; [test solute] = 1 mM) was 52 ± 2.6 % PfCRTEcu1110 control. For the same substance, the “PfCRT-mediated [3H]CQ transport, cis-inhibition (% PfCRTEcu1110 control)” value (PfCRT^Ecu1110 [3]; [test solute] = 2 mM) was 39 ± 2.1 % PfCRTEcu1110 control, the “[3H]CQ transport (% PfCRTEcu1110 control), cis-inhibition, PfCRTEcu1110” value (PfCRT^Ecu1110 [3]; [test solute] = 1 mM) was 16 ± 0.1 % PfCRTEcu1110 control and the “[3H]CQ transport (% PfCRTEcu1110 control), cis-inhibition, PfCRTEcu1110” value (PfCRT^Ecu1110 [3]; [test solute] = 2 mM) was 12 ± 0.2 % PfCRTEcu1110 control. The “Uptake of [3H]CQ (% non-expressing oocyte control), cis-inhibition” value (non-expressing oocytes [4]; [test solute] = 0.5 mM) was 98 ± 3.0 % non-expressing oocyte control, the “Uptake of [3H]CQ (% non-expressing oocyte control), cis-inhibition” value (non-expressing oocytes [4]; [test solute] = 1 mM) was 100 ± 4.7 % non-expressing oocyte control and the “Uptake of [3H]CQ (% non-expressing oocyte control), cis-inhibition” value (non-expressing oocytes [4]; [test solute] = 2 mM) was 98 ± 3.9 % non-expressing oocyte control. For the same substance, the “Uptake of [3H]CQ (% PfCRTDd2 control), trans-stimulation” value (PfCRT^Dd2 [5]; [test solute]i = 5 mM) was 98 ± 2.2 % PfCRTDd2 control, the “Uptake of [3H]CQ (% PfCRTDd2 control), trans-stimulation” value (PfCRT^Dd2 [5]; [9]) was 115 ± 1.1 % PfCRTDd2 control and the “PfCRT-mediated [3H]CQ transport, trans-stimulation (% PfCRTDd2 control)” value (PfCRT^Dd2 [5]; [10]) was 96 ± 3.2 % PfCRTDd2 control. The “PfCRT-mediated [3H]CQ transport, trans-stimulation (% PfCRTDd2 control)” value (PfCRT^Dd2 [5]; [11]) was 110 ± 0.9 % PfCRTDd2 control, the “[3H]CQ transport (% PfCRTDd2 control), trans-stimulation, PfCRTDd2” value (PfCRT^Dd2 [5]; [12]) was 96 ± 3.2 % PfCRTDd2 control and the “[3H]CQ transport (% PfCRTDd2 control), trans-stimulation, PfCRTDd2” value (PfCRT^Dd2 [5]; [9]) was 110 ± 0.9 % PfCRTDd2 control. For the same substance, the “Uptake of [3H]CQ (% PfCRT3D7 control), trans-stimulation” value (PfCRT^3D7 [6]; [test solute]i = 5 mM) was 130 ± 4.2 % PfCRT3D7 control, the “Uptake of [3H]CQ (% PfCRT3D7 control), trans-stimulation” value (PfCRT^3D7 [6]; [9]) was 149 ± 5.8 % PfCRT3D7 control and the “PfCRT-mediated [3H]CQ transport, trans-stimulation (% PfCRT3D7 control)” value (PfCRT^3D7 [6]; [10]) was 124 ± 3.2 % PfCRT3D7 control. The “PfCRT-mediated [3H]CQ transport, trans-stimulation (% PfCRT3D7 control)” value (PfCRT^3D7 [6]; [11]) was 141 ± 4.0 % PfCRT3D7 control, the “Uptake of [3H]CQ (% PfCRTEcu1110 control), trans-stimulation” value (PfCRT^Ecu1110 [7]; [test solute]i = 5 mM) was 122 ± 3.0 % PfCRTEcu1110 control and the “Uptake of [3H]CQ (% PfCRTEcu1110 control), trans-stimulation” value (PfCRT^Ecu1110 [7]; [9]) was 133 ± 3.5 % PfCRTEcu1110 control. The “PfCRT-mediated [3H]CQ transport, trans-stimulation (% PfCRTEcu1110 control)” value (PfCRT^Ecu1110 [7]; [10]) was 117 ± 2.4 % PfCRTEcu1110 control, the “PfCRT-mediated [3H]CQ transport, trans-stimulation (% PfCRTEcu1110 control)” value (PfCRT^Ecu1110 [7]; [11]) was 127 ± 1.9 % PfCRTEcu1110 control and the “[3H]CQ transport (% PfCRTDd2 control), trans-stimulation, PfCRTEcu1110” value (PfCRT^Ecu1110 [7]; [12]) was 35 ± 1.3 % PfCRTEcu1110 control. The “[3H]CQ transport (% PfCRTDd2 control), trans-stimulation, PfCRTEcu1110” value (PfCRT^Ecu1110 [7]; [9]) was 38 ± 1.1 % PfCRTEcu1110 control, the “Uptake of [3H]CQ (% PfNT1 control), trans-stimulation” value (PfNT1; [test solute]i = 5 mM) was 96 ± 3.5 % PfNT1 control and the “Uptake of [3H]CQ (% PfNT1 control), trans-stimulation” value (PfNT1; [9]) was 98 ± 3.4 % PfNT1 control. For the same substance, the “Uptake of [3H]CQ (% PfCRT3D7 control), cis-inhibition” value (PfCRT^3D7 [8]; [test solute] = 0.5 mM) was 99 ± 5.3 % PfCRT3D7 control, the “Uptake of [3H]CQ (% PfCRT3D7 control), cis-inhibition” value (PfCRT^3D7 [8]; [test solute] = 1 mM) was 99 ± 4.8 % PfCRT3D7 control and the “Uptake of [3H]CQ (% PfCRT3D7 control), cis-inhibition” value (PfCRT^3D7 [8]; [test solute] = 2 mM) was 99 ± 5.7 % PfCRT3D7 control.
